In US4266034A, “Method for producing microbial cells and use thereof to produce oxidation products” (priority 1979, dated 1981):
Where two headings read alike, the source gives them in different places.

Legend:
[1] = tested on: secondary alcohol dehydrogenase; assay: Purified yeast-derived secondary alcohol dehydrogenase activity; type: biochemical, Pichia sp. NRRL Y-11,328
Method: Large scale cultures of Pichia sp. NRRL Y-11,328 were grown with aeration at 30° C. in a 14-liter New Brunswick f fermentor in a mineral salt medium containing methanol (0.4%, v/v) as the sole carbon source. The cells (200 g., wet weight) were suspended in […] sodium phosphate buffer, pH 7.0, containing 1 mM dithiothreitol (buffer A), and crude extracts were prepared as described previously. To the crude extracts, 18 ml. of protamine sulfate solution [2% solution in 0.1 M tris (hydroxymethyl) aminomethane (tris) base] was added dropwise with continuous stirring. After standing for 30 min., the extracts were centrifuged at 20,000×g. for 60 min. The supernatant solution was fractionated with solid ammonium sulfate. Extracts were brought to 50% of saturation with respect to ammonium sulfate by addition of 313 g. of the salt per liter of extract. Precipitated proteins was removed by centrifugation, and 137 g. of ammonium sulfate was added per liter of the supernatant liquid to bring it to 70% of saturation. Material precipitating between 50 and 70% of saturation was collected by centrifugation and dissolved in buffer A. This preparation was dialyzed overnight against buffer A, and the dialyzed material was applied to a DEAE-cellulose column (5×40 cm) that had been equilibrated with buffer A. The sample was washed with 200 ml. of buffer A and eluted with 2 liters of buffer A that contained NaCl in a linear gradient running from a concentration of 0 to 0.5 M. Fractions of 15 ml. were collected. Fractions containing secondary alcohol dehydrogenase activity were pooled and were termed DEAE-cellulose eluate. The DEAE-cellulose eluate was concentrated by ammonium sulfate fractionation.
Secondary alcohol dehydrogenase activity was measured spectrophotometrically at 340 nm with a NAD^+ as an electron acceptor. The reaction mixture, in a total 3.0 ml., contained 50 mM phosphate buffer, pH 8.0, 5 μmoles NAD^+, crude extracts, and substrate. […] Protein concentration was determined by the method of Lowry et al.
The substrate specificity of the purified secondary alcohol dehydrogenase was examined spectrophotometrically.

[2] = tested on: P(40) particulate fraction of Methylosinus sp. (CRL-15, NRRL B-11,202); assay: Epoxidation of propylene and hydroxylation of methane by P(40) particulate fraction; type: biochemical; settings: for Rate of Production Formation: substrate oxidized by P(40) fraction, 30° C.; for Methane-Oxidizing Activity / Propylene-Oxidizing Activity: metal 10^-3 M; for Methane-Oxidizing Activity: control 4.0; for Propylene-Oxidizing Activity: control […]; for Propylene Oxide Produced: substrate competition, P(40) fraction
[3] = tested on: secondary alcohol dehydrogenase (SADH); assay: Purified secondary alcohol dehydrogenase (SADH) activity; type: biochemical, Pseudomonas sp. ATCC 21439; settings: each inhibitor 1 mM, measured spectrofluorometrically
Method: Secondary alcohol dehydrogenase (SADH) from an obligate methanol utilizer, Pseudomonas sp. ATCC 21439 was purified as follows. […] 0.05 M sodium phosphate buffer, pH 7.0 with 0.5 mM dithiothretol (buffer A) and were disrupted sonically (5×1 min.). The crude extract was separated by centrifugation. The crude extract was heat-treated at 50° C. in a water bath for 10 minutes. The resulting precipitate was removed by centrifugation. To the supernatant solution, 25 ml of protamine sulfate solution (2% solution in 0.1 M Tris base) was added dropwise with continuous stirring. After standing for 30 minutes, the extract was centrifuged. The supernatant solution was fractionated with solid ammonium sulfate. The material precipitating between 30 and 60% saturation was collected and was dialized overnight against buffer A. The The dialized material was applied to a DEAE-cellulose column (3 cm by 35 cm) that had been equilibrated with buffer A. The secondary alcohol dehydrogenase activity was eluted in the void volume. This DEAE-cellulose eluate was concentrated by ammonium sulfate fractionation. Material precipitating between 30 and 50% ammonium sulfate saturation was collected by centrifugation and dialyzed overnight against A. This fraction was further washed and filtered through an Amicon unit with XM 50 membrane. The concentrated fraction (6 ml) inside the Amicon unit was applied to an Affi-Gel Blue column (0.8 cm×18 cm) which had been equilibrated with buffer A for affinity chromatography. The column was washed overnight with buffer A (0.18 ml./min.) and then was eluted with buffer A containing 5 mM NAD. Each 1 ml. fraction was collected.
The purified secondary alcohol dehydrogenase enzyme (SADH) may be used directly for converting C3 -C6 secondary alcohols to the corresponding methyl ketones by the procedures described above; however, a source of NAD^+ must be added to the reaction medium. One can determine the NAD-linked secondary alcohol dehydrogenase activity with a fluorescence spectrophotometer (Perkin Elmer, Model MPF 44A) by following the formation of reduced NAD (Ex 340 nm, Em 460 nm). The assay system (3 ml.) will typically contain: sodium phosphate buffer pH 7.0, 150 μmol; NAD 1.0 μmol; a given amount of enzyme preparation; and 20 μmol secondary alcohol. The reaction is started by the addition of secondary alcohol. One unit of SADH enzyme activity represents the reduction of one nmole NAD per minute.
The effect of metal-chelating agents and thioreagents on the activity of the purified SADH enzyme were studied. […] The possibility of ethanol or n-propanol as an inhibitor was studied.

[4] = tested on: secondary alcohol dehydrogenase; assay: Cofactor requirement of cell-free soluble extracts oxidizing 2-butanol; type: biochemical; settings: cell-free systems
Method: Catalytic activity was also assayed by fluorescence spectrophotometry.

[5] = tested on: cell-free particulate fractions derived from the methylotrophic microorganisms; assay: Inhibition of conversion of C3-C6 n-alkanes to sec. alcohols by cell-free particulate fractions; type: biochemical; settings: oxygen and NADH
Excerpt: The conditions for preparing the cell suspensions or the cell-free particulate fractions from methane-grown methylotroph microorganisms is the same as described above. […] Tables XXV and XXVI show the conversion of C3 -C6 n-alkanes to the corresponding secondary alcohols using cell suspensions and cell-free particulate fractions, respectively, of methane-grown methylotroph microorganisms.

[6] = examined spectrophotometrically
[7] = purified enzyme, substrate 5.7 (isopropanol) or 6.0 (2-butanol) μmoles

N#C[S][Hg][S]C#N [mercuric thiocyanate]
inhibition of secondary alcohol dehydrogenase activity ([1]; purified enzyme): inhibited

C=CCCC [1-Pentene]
Rate of Production Formation [2]: 0 μ moles/hr/mg of protein

O=[N+]([O-])[O-].[Ag+] [silver nitrate]
inhibition of secondary alcohol dehydrogenase activity ([1]; purified enzyme): inhibited

CCCCCO [pentan-1-ol]
oxidation by the purified enzyme (substrate specificity) [1, 6]: not oxidized

CCN1C(=O)C=CC1=O [N-ethylmalemide]
% inhibition of SADH activity [3]: 6%
% inhibition of SADH activity ([3]; listed as N-ethylmaleimide): not inhibited

[Cu+2] [cupric]
% inhibition of SADH activity [3]: 25%

CCC(C)O (stereo not drawn) [2-butanol]
oxidation by the purified enzyme (substrate specificity) [1]: catalyzed the oxidation

C=CCC [1-Butene]
Rate of Production Formation [2]: 2.18 μ moles/hr/mg of protein

O=S(=O)([O-])[O-].[Cu+2] [Cupric Sulfate]
Methane-Oxidizing Activity [2]: 7.1 μmoles/hr/mg protein
Propylene-Oxidizing Activity [2]: 9.0 μmoles/hr/mg protein
inhibition of secondary alcohol dehydrogenase activity ([1]; purified enzyme): inhibited

c1c[nH]cn1 [Imidazole]
inhibition of secondary alcohol dehydrogenase activity ([1]; purified enzyme): strongly inhibited

NC(=O)C1=CN([C@@H]2O[C@H](COP(=O)(O)OP(=O)(O)OC[C@H]3O[C@@H](n4cnc5c(N)ncnc54)[C@H](OP(=O)(O)O)[C@@H]3O)[C@@H](O)[C@H]2O)C=CC1 [NAD(P)H]
effectiveness as cofactor in place of NAD [4]: not effective

[Ni+2] [nickel]
% inhibition of SADH activity [3]: 20%

NNC(N)=S [Thiosemicarbazide]
inhibition of the conversion of n-alkanes to sec. alcohols [5]: inhibited

[Zn+2] [Zn^++]
% inhibition of SADH activity [3]: 0%

cytochrome c
ability to act as electron carrier in place of NAD^+ ([1]; purified enzyme): could not act as electron carrier

CC(O)CO (stereo not drawn) [1,2-propandiol]
oxidation by the purified enzyme (substrate specificity) [1, 6]: not oxidized

CCC(O)CO (stereo not drawn) [butane 1,2-diol]
oxidation by the purified enzyme (substrate specificity) [1, 6]: not oxidized

[N-]=[N+]=[N-] [Sodium azide]
% inhibition of SADH activity [3]: 10%

[Cl][Cu] [Cuprous Chloride]
Methane-Oxidizing Activity [2]: 7.2 μmoles/hr/mg protein
Propylene-Oxidizing Activity [2]: 9.2 μmoles/hr/mg protein

C=CC=C [Butadiene]
Rate of Production Formation [2]: 0.63 μ moles/hr/mg of protein

[Cl][Fe]([Cl])[Cl] [Ferric Chloride]
Methane-Oxidizing Activity [2]: 4.8 μmoles/hr/mg protein
Propylene-Oxidizing Activity [2]: 5.8 μmoles/hr/mg protein

[Mg+2] [Mg^++]
% inhibition of SADH activity [3]: 0%

C[n+]1c2ccccc2nc2ccccc21 [phenazine methosulfate]
ability to act as electron carrier in place of NAD^+ ([1]; purified enzyme): could not act as electron carrier
effectiveness as cofactor in place of NAD [4]: not effective

CCCCO [butan-1-ol]
oxidation by the purified enzyme (substrate specificity) [1]: not oxidized

[Fe+2] [ferrous]
% inhibition of SADH activity [3]: 50%

CCO [ethanol]
oxidation by the purified enzyme (substrate specificity) [1]: not oxidized

C [Methane]
Propylene Oxide Produced [2]: 0 μmoles/hr/mg. protein
Rate of Production Formation [2]: 4.8 μ moles/hr/mg of protein

CC(O)CCO (stereo not drawn) [butane 1,3-diol]
oxidation by the purified enzyme (substrate specificity) [1, 6]: not oxidized

CCCCC(C)O (stereo not drawn) [2-hexanol]
oxidation by the purified enzyme (substrate specificity) [1, 6]: catalyzed the oxidation

CCCO [propan-1-ol]
oxidation by the purified enzyme (substrate specificity) [1]: not oxidized

O=C(O)c1cc[c]([Hg+])cc1.[OH-] [p-hydroxymercuribenzoate]
% inhibition of SADH activity [3]: 100%
inhibition of secondary alcohol dehydrogenase activity ([1]; purified enzyme): strongly inhibited

CO [methanol]
oxidation by the purified enzyme (substrate specificity) [1, 6]: not oxidized

CCCC(C)O (stereo not drawn) [2-pentanol]
oxidation by the purified enzyme (substrate specificity) [1, 6]: catalyzed the oxidation

Cc1cc2nc3c(=O)[nH]c(=O)nc-3n(C[C@H](O)[C@H](O)[C@H](O)COP(=O)(O)OP(=O)(O)OC[C@H]3O[C@@H](n4cnc5c(N)ncnc54)[C@H](O)[C@@H]3O)c2cc1C [flavin adenine dinucleotide]
ability to act as electron carrier in place of NAD^+ ([1]; purified enzyme): could not act as electron carrier
effectiveness as cofactor in place of NAD [4]: not effective

Oc1cccc2cccnc12 [8-Hydroxyquinoline]
inhibition of the conversion of n-alkanes to sec. alcohols [5]: inhibited

CC(C)O [2-propanol]
oxidation by the purified enzyme (substrate specificity) [1, 6]: catalyzed the oxidation
NAD^+ Reduced [1, 7]: 5.4 µmol
Product Formed [1, 7]: 5.5 µmol

[Fe+3] [ferric]
% inhibition of SADH activity [3]: 35%

CCCCCC(C)O (stereo not drawn) [2-Heptanol]
oxidation by the purified enzyme (substrate specificity) [1, 6]: not oxidized

NC(=O)c1ccc[n+]([C@@H]2O[C@H](COP(=O)([O-])OP(=O)(O)OC[C@H]3O[C@@H](n4cnc5c(N)ncnc54)[C@H](OP(=O)(O)O)[C@@H]3O)[C@@H](O)[C@H]2O)c1 [NADP]
ability to act as electron carrier in place of NAD^+ ([1]; purified enzyme): could not act as electron carrier
effectiveness as cofactor in place of NAD [4]: not effective

C=C [Ethylene]
Rate of Production Formation [2]: 1.27 μ moles/hr/mg of protein

CCCCCCC(C)O (stereo not drawn) [2-octanol]
oxidation by the purified enzyme (substrate specificity) [1, 6]: not oxidized

[Co+2] [Co^++]
% inhibition of SADH activity [3]: 0%

C=CC [Propylene]
Propylene Oxide Produced [2]: 4.3 μmoles/hr/mg. protein
Rate of Production Formation [2]: 4.1 μ moles/hr/mg of protein
inhibition of the conversion of n-alkanes to sec. alcohols [5]: inhibited

[Mn+2] [Mn^++]
% inhibition of SADH activity [3]: 0%

Ferrous Sulfate
Methane-Oxidizing Activity [2]: 4.8 μmoles/hr/mg protein
Propylene-Oxidizing Activity [2]: 5.9 μmoles/hr/mg protein

O=C(O)c1cc(SSc2ccc([N+](=O)[O-])c(C(=O)O)c2)ccc1[N+](=O)[O-] [5,5'-dithiobis(2-nitrobenzoic acid)]
% inhibition of SADH activity [3]: 100%
% inhibition of SADH activity ([3]; listed as 5,5'-dithiobis (2-nitrobenzoic acid)): inhibited

CC [Ethane]
Rate of Production Formation [2]: 3.2 μ moles/hr/mg of protein
